In patent publication US20220402862A1 (Intellia Therapeutics, Inc., priority 2019, published 2022):

Tests used:
Transthyretin (TTR) = test: Serum TTR ELISA in mice after LNP dosing; type: in vivo, CD-1 female mice; conditions: guide G282 experiments; for Serum TTR % TSS: mouse serum TTR relative to TSS control; for Serum TTR: mouse serum, ELISA
Description: CD-1 female mice ranging from 6-10 weeks of age were used in each study. Animals were weighed and grouped according to body weight for preparing dosing solutions based on group average weight. LNPs were dosed via the lateral tail vein in a volume of 0.2 mL per animal (approximately 10 mL per kilogram body weight). The animals were periodically observed for adverse effects for at least 24 hours post dose. For studies measuring in vivo editing in liver, CD-1 female mice were dosed at 0.1 mg/kg unless otherwise noted. Animals were euthanized at 6 or 7 days by ex sanguination via cardiac puncture under isoflurane anesthesia. Liver tissue was collected from each animal for DNA extraction and analysis. Blood was collected into serum separator tubes or into tubes containing buffered sodium citrate for plasma as described herein. Cohorts of mice were measured for editing by Next-Generation Sequencing (NGS).
Blood was collected and the serum was isolated as indicated. The total mouse TTR serum levels were determined using a Mouse Prealbumin (Transthyretin) ELISA Kit (Aviva Systems Biology, Cat. OKIA00111). Briefly, sera were serial diluted with kit sample diluent to a final dilution of 10,000-fold for 0.1 mg/kg dose and final dilutions of 10,000-fold and of 2,500-fold for 0.3 mg/kg. This diluted sample was then added to the ELISA plates and the assay was carried out according to the manufacturer's directions.

[1] = RNA encapsulation efficiency of LNPs (Ribogreen fluorescence assay); type: physicochemical; conditions: LNP
Description: A fluorescence-based assay (Ribogreen®, ThermoFisher Scientific) is used to determine total RNA concentration and free RNA. Encapsulation efficiency is calculated as (Total RNA-Free RNA)/Total RNA. LNP samples are diluted appropriately with 1× TE buffer containing 0.2% Triton-X 100 to determine total RNA or 1× TE buffer to determine free RNA. Standard curves are prepared by utilizing the starting RNA solution used to make the compositions and diluted in 1× TE buffer +/− 0.2% Triton-X 100. Diluted RiboGreen® dye (according to the manufacturer's instructions) is then added to each of the standards and samples and allowed to incubate for approximately 10 minutes at room temperature, in the absence of light. A SpectraMax M5 Microplate Reader (Molecular Devices) is used to read the samples with excitation, auto cutoff and emission wavelengths set to 488 nm, 515 nm, and 525 nm respectively. Total RNA and free RNA are determined from the appropriate standard curves.
Encapsulation efficiency is calculated as (Total RNA-Free RNA)/Total RNA. The same procedure may be used for determining the encapsulation efficiency of a DNA-based cargo component. In a fluorescence-based assay, for single-strand DNA Oligreen Dye may be used, and for double-strand DNA, Picogreen Dye. Alternatively, the total RNA concentration can be determined by a reverse-phase ion-pairing (RP-IP) HPLC method. Triton X-100 is used to disrupt the LNPs, releasing the RNA. The RNA is then separated from the lipid components chromatographically by RP-IP HPLC and quantified against a standard curve using UV absorbance at 260 nm.

[2] = Dynamic light scattering of LNPs: Z-average diameter, number average diameter, PDI; type: physicochemical; conditions: LNP
Description: Dynamic Light Scattering (“DLS”) is used to characterize the polydispersity index (“PDI”) and size of the LNPs of the present disclosure. DLS measures the scattering of light that results from subjecting a sample to a light source. PDI, as determined from DLS measurements, represents the distribution of particle size (around the mean particle size) in a population, with a perfectly uniform population having a PDI of zero.
LNP compositions are analyzed for average particle size, polydispersity index (PDI), total RNA content, encapsulation efficiency of RNA, and zeta potential. LNP compositions may be further characterized by lipid analysis, AF4-MALS, NTA, and/or cryo-EM. Average particle size and polydispersity are measured by dynamic light scattering (DLS) using a Malvern Zetasizer DLS instrument or Wyatt NanoStar. LNP samples were diluted with PBS buffer prior to being measured by DLS. Z-average diameter which is an intensity-based measurement of average particle size is reported along with number average diameter and PDI. A Malvern Zetasizer or Wyatt NanoStar instrument is also used to measure the zeta potential of the LNP. Samples are diluted 1:17 (50 μL into 800 μL) in 0.1× PBS, pH 7.4 prior to measurement.

[3] = sg:mRNA 1:1, N/P about 6, amine lipid/DSPC/cholesterol/PEG-2k-DMG 50/9/38/3, Table 2, Experiments 2-20
[4] = sg:mRNA 1:1, N/P about 6, 50/9/38/3, Table 2, Experiments 2-20
[5] = sg:mRNA 1:1.3, N/P about 6, amine lipid/DSPC/cholesterol/PEG-2k-DMG 50/9/38/3, Table 2, Experiment 1
[6] = sg:mRNA 1:1.3, N/P about 6, 50/9/38/3, Table 2, Experiment 1

Encapsulation (%) [1, 5] [%]	Number mean (nm) [2, 6] [nm]	PDI [2, 6]	Z-avg (nm) [2, 6] [nm]	Compound	Serum TTR % TSS (Transthyretin (TTR)) [%]	Serum TTR (Transthyretin (TTR)) [µg/mL]	Encapsulation (%) [1, 3] [%]	Number mean (nm) [2, 4] [nm]	PDI [2, 4]	Z-avg (nm) [2, 4] [nm]
–	–	–	–	CCCCC/C=C\C/C=C\CCCCCCCC(=O)OCC(COC(=O)CCC(OCCCCCCCC)OCCCCCCCC)COC(=O)OCCC(C)N(C)C (stereo not drawn) [Compound 22, 3-((4,4-bis(octyloxy)butanoyl)oxy)-2-((((3-(dimethylamino)butoxy)carbonyl)oxy)methyl)propyl (9Z,12Z)-octadeca-9,12-dienoate]	61	634	98	73.96	0.004	89.43
–	–	–	–	CCCCC/C=C\C/C=C\CCCCCCCC(=O)OCC(COC(=O)CCC(OCCCCCCCC)OCCCCCCCC)COC(=O)OCCCCN1CCCC1 (stereo not drawn) [Compound 13, 3-((4,4-bis(octyloxy)butanoyl)oxy)-2-((((4-(pyrrolidin-1-yl)butoxy)carbonyl)oxy)methyl)propyl (9Z,12Z)-octadeca-9,12-dienoate]	93	837	97	74.6	0.013	91.12
98	50.89	0.059	66.28	CCCCC/C=C\C/C=C\CCCCCCCC(=O)OCC(COC(=O)CCC(OCCCCCCCC)OCCCCCCCC)COC(=O)OCC1CCCN(CC)C1 (stereo not drawn) [Compound 5, 3-((4,4-bis(octyloxy)butanoyl)oxy)-2-(((((1-ethylpiperidin-3-yl)methoxy)carbonyl)oxy)methyl)propyl (9Z,12Z)-octadeca-9,12-dienoate]	60	737	–	–	–	–
91	61.67	0.079	86.16	CCCCC/C=C\C/C=C\CCCCCCCC(=O)OCC(COC(=O)CCC(OCCCCCCCC)OCCCCCCCC)COC(=O)OCCCN1CCCC1 (stereo not drawn) [Compound 3, 3-((4,4-bis(octyloxy)butanoyl)oxy)-2-((((3-(pyrrolidin-1-yl)propoxy)carbonyl)oxy)methyl)propyl (9Z,12Z)-octadeca-9,12-dienoate]	105	1297	–	–	–	–
–	–	–	–	CCCCC/C=C\C/C=C\CCCCCCCC(=O)OCC(COC(=O)CCC(OCCCCCCCC)OCCCCCCCC)COC(=O)OCCN1CCCC1 (stereo not drawn) [Compound 10, 3-((4,4-bis(octyloxy)butanoyl)oxy)-2-((((2-(pyrrolidin-1-yl)ethoxy)carbonyl)oxy)methyl)propyl (9Z,12Z)-octadeca-9,12-dienoate]	96	871	90	39.12	0.086	57.21
100	41.82	0.066	56.86	CCCCC/C=C\C/C=C\CCCCCCCC(=O)OCC(COC(=O)CCC(OCCCCCCCC)OCCCCCCCC)COC(=O)NCCCN(C)C (stereo not drawn) [Compound 6, 3-((4,4-bis(octyloxy)butanoyl)oxy)-2-((((3-(dimethylamino)propyl)carbamoyl)oxy)methyl)propyl (9Z,12Z)-octadeca-9,12-dienoate]	90	1107	–	–	–	–
–	–	–	–	CCCCC/C=C\C/C=C\CCCCCCCC(=O)OCC(COC(=O)CCC(OCCCCCCCC)OCCCCCCCC)COC(=O)OCCN(CC)CC (stereo not drawn) [Compound 9, 3-((4,4-bis(octyloxy)butanoyl)oxy)-2-((((2-(diethylamino)ethoxy)carbonyl)oxy)methyl)propyl (9Z,12Z)-octadeca-9,12-dienoate]	100	865	89	45.11	0.058	62.99
